Converted amounts (≈) assume the structure as drawn. Where two headings read alike, the source gives them in different places.

The test system of one data set is HeLa cells. The data set is described as follows: Colony inhibition test against HeLa cells in vitro. In kind it is cell-based. The settings on record: Homo sapiens. The source says:
The compounds have been tested in several experimental systems in order to ascertain their cytotoxicity and antitumor activity in experimental animals.
Colony inhibition test against HeLa cells
in vitro (treatment for 24 hrs)

The next data set relates to P388 leukemia. The data set is described as follows: Antitumor activity against P388 leukemia in CDF-1 mice. Particulars: for LTS (long term survivors, >60 days) / Toxic deaths / T/C %: ip on day 1; for Toxic deaths: autopsy findings; for T/C %: median survival time. In kind it is in vivo. As for the experimental part:
(§1) The primary screening in vivo was carried out in CDF-1 mice bearing P388 ascetic leukemia (10^6 cells/mouse). […] The doxorubicin analogs II, IV, VI have been tested in C3H mice bearing the Gross leukemia injected iv (2×10^6 cell/mouse). […] Compound II has been studied on P388 leukemia cells resistant to doxorubicin (P388/DX) in vitro and in vivo. Cytotoxicity tests were carried out exposing the cells to various drug concentrations for 48 hrs. At the end of exposure period cells were counted with a coulter cell counter, and the ID50 (dose which gives 50% reduction of the cell number in comparison with untreated controls) was calculated. […] Compound II has been tested also in vivo in BDF-1 mice bearing P388/DX leukemia.
Antitumor activity against P388 leukemia
^a Median survival time; % over untreated controls
^b Long term survivors (>60 days)
^c Evaluated on the basis of autopsy findings on dead mice

For a further data set, the system named is P388 leukemia cells. The data set is described as follows: Cytotoxicity test on doxorubicin-sensitive P388 leukemia cells in vitro. In kind it is cell-based. Particulars: for IC50: Mus musculus. As for the experimental part: as §1
(§2) Effect on sensitive and doxorubicin-resistant
(§3) ^a Dose giving 50% reduction of cell number in comparison with
^b P388 leukemia cells sensitive to doxorubicin

In the next data set the test system is P388/DX leukemia cells. The data set is described as follows: Cytotoxicity test on doxorubicin-resistant P388 leukemia cells (P388/DX) in vitro. In kind it is cell-based. Particulars: for activity on P388/DX leukemia cells: P388/DX cells in vitro, 48 hrs. As for the experimental part: as §1, §2, §3
^c P388 leukemia cells resistant to doxorubicin

Another data set deals with Gross leukemia. The data set is described as follows: Activity on Gross leukemia in C3H mice. The settings on record: for LTS (long term survivors, >60 days) / Toxic deaths / T/C %: iv on day 1; for Toxic deaths: autopsy findings; for T/C %: median survival time; for potency versus doxorubicin in Gross leukemia: iv on day 1 after tumor inoculation. It counts as in vivo. The method, then: as §1
Activity on Gross leukemia (IV-1)

The subject of another data set is P388/DX leukemia. The data set is described as follows: Effect on doxorubicin-resistant P388 leukemia (P388/DX) in vivo. Also noted: species or system BDF-1 mice. Particulars: for Toxic deaths: autopsy findings; for T/C: median survival time. The method, then:
as §1
Effect on doxorubicin-resistant P388 leukemia

[1] abbreviates: compared with doxorubicin, P388 leukemia in mice.
Where [2] appears, read: HeLa cells, colony inhibition, treatment for 24 hrs, read-out: ID50 (the source's name).

With `COc1cccc2c1C(=O)c1c(O)c3c(c(O)c1C2=O)C[C@@](O)(C(C)=O)C[C@@H]3O[C@H]1C[C@H](N2CCOC(OC)C2)[C@H](O)[C@H](C)O1` (stereo partly shown) [Compound I, 3'-deamino-3'-(2"-methoxy-4"-morpholinyl)daunorubicin], in the data set on HeLa cells (HeLa, 24 h, read-out: ID50), the IC50 came out at 2 ng/mL (≈ 3.19 nM). Moreover, in the data set with P388 leukemia (0.13 mg/Kg), the “LTS (long term survivors, >60 days)” value is on record as 0/10; the Toxic deaths is given as 0/10; the T/C % was determined as 136%.

For the compound `COc1cccc2c1C(=O)c1c(O)c3c(c(O)c1C2=O)C[C@@](O)(C(=O)CO)C[C@@H]3O[C@H]1C[C@H](N2CCOC(OC)C2)[C@H](O)[C@H](C)O1` (stereo partly shown) [Compound II, 3'-deamino-3'-(2"-methoxy-4"-morpholinyl)doxorubicin], the IC50 in the data set on P388 leukemia cells (P388, 48 h, read-out: ID50) stood at 0.3 ng/mL (≈ 0.466 nM). For the same compound, in the data set on P388 leukemia cells (P388 leukemia cells), the “times more cytotoxic than doxorubicin” value turned out to be 40 times. Moreover, in the data set with HeLa cells (HeLa, 24 h, read-out: ID50), the IC50 was 0.96 ng/mL (≈ 1.49 nM). Moreover, in the data set with P388 leukemia (0.15 mg/Kg), the “LTS (long term survivors, >60 days)” value is reported as 2/10; the Toxic deaths is listed as 0/10; the T/C % was found to be 295%. For the same compound, in the data set on P388 leukemia (setting [1]), the “efficacy versus the parent drug” value is recorded as “exhibits a major efficacy”, the “potency versus the parent drug” value is listed as “more potent than the parent drug” and the “times more potent than the parent drug” value was found to be 60 times. Besides, the “activity on P388/DX leukemia cells” value in the data set on P388/DX leukemia cells is reported as “very active”. In addition, the IC50 in the data set with P388/DX leukemia cells (P388/DX, 48 h, read-out: ID50) was 3 ng/mL (≈ 4.66 nM). In the data set with Gross leukemia (0.16 mg/Kg), the “LTS (long term survivors, >60 days)” value was 0/10; the Toxic deaths was 0/10; the T/C % is reported as 150%. Also, the “potency versus doxorubicin in Gross leukemia” value (“potency versus doxorubicin” below) with Gross leukemia is “more potent than doxorubicin”. Further, in the data set on P388/DX leukemia (0.075 mg/Kg), the “LTC (long term survivors, >60 days)” value was 0/10; the Toxic deaths was 0/10; the T/C (as a rule, the result in the treated group divided by that in the control group, in per cent) is recorded as 100%. Further, in the data set on P388/DX leukemia (0.15 mg/Kg), the “LTC (long term survivors, >60 days)” value is listed as 0/10; the Toxic deaths is given as 1/10; the T/C was found to be 165%. In addition, the “activity in P388/DX leukemia in vivo” value with P388/DX leukemia (BDF-1 mice, 0.15 mg/Kg) is reported as “very active”.

Take `COc1cccc2c1C(=O)c1c(O)c3c(c(O)c1C2=O)C[C@@](O)(C(C)=O)C[C@@H]3O[C@H]1C[C@H](N)[C@H](O)[C@H](C)O1` [Daunorubicin, daunorubicin]: in the data set with HeLa cells (setting [2]), the IC50 stood at 18.6 ng/mL (≈ 35.3 nM). Also, in the data set with P388 leukemia (2.9 mg/Kg), the “LTS (long term survivors, >60 days)” value is given as 0/10; the Toxic deaths is 0/10; the T/C % stood at 145%. For the same compound, in the data set with P388 leukemia (4.4 mg/Kg), the “LTS (long term survivors, >60 days)” value is reported as 0/10; the Toxic deaths is recorded as 1/10; the T/C % is 150%.

For the compound `COc1cccc2c1C(=O)c1c(O)c3c(c(O)c1C2=O)C[C@@](O)(C(=O)CO)C[C@@H]3O[C@H]1C[C@H](N)[C@H](O)[C@H](C)O1` [Doxorubicin, doxorubicin], the IC50 in the data set with P388 leukemia cells (P388 sensitive to doxorubicin, 48 hrs exposure, cell count, read-out: ID50 (the source's name)) is 12 ng/mL (≈ 22.1 nM); with HeLa cells (setting [2]) it was 18 ng/mL (≈ 33.1 nM); in the data set on P388/DX leukemia cells (P388/DX resistant to doxorubicin, 48 hrs exposure, cell count, read-out: ID50 (the source's name)), 1500 ng/mL (≈ 2760 nM). The “LTS (long term survivors, >60 days)” value in the data set on P388 leukemia (6.6 mg/Kg) is 0/10; with P388 leukemia (10 mg/Kg), 1/10; in the data set with Gross leukemia (10 mg/Kg) it was 0/10; in the data set on Gross leukemia (13 mg/Kg), 0/10. In addition, the Toxic deaths in the data set with P388 leukemia (6.6 mg/Kg), with P388 leukemia (10 mg/Kg), in the data set on Gross leukemia (10 mg/Kg), in the data set on Gross leukemia (13 mg/Kg), in the data set on P388/DX leukemia (4.4 mg/Kg) and with P388/DX leukemia (6.6 mg/Kg) was 0/10 in each case. For the same compound, the T/C % came to 214% with P388 leukemia (6.6 mg/Kg), 214% in the data set with P388 leukemia (10 mg/Kg), 183% with Gross leukemia (10 mg/Kg) and 200% in the data set on Gross leukemia (13 mg/Kg). Besides, in the data set on P388/DX leukemia cells, the “activity on P388/DX leukemia cells” value is “inactive”. Besides, the “LTC (long term survivors, >60 days)” value with P388/DX leukemia (4.4 mg/Kg) and in the data set with P388/DX leukemia (6.6 mg/Kg) was 0/10 throughout. For the same compound, the T/C amounted to 110% in the data set with P388/DX leukemia (4.4 mg/Kg) and 100% in the data set on P388/DX leukemia (6.6 mg/Kg).

`COc1cccc2c1C(=O)c1c(O)c3c(c(O)c1C2=O)C[C@@](O)(C(C)=O)C[C@@H]3O[C@H]1C[C@H](N2CC(C)OC(OC)C2)[C@H](O)[C@H](C)O1` (stereo partly shown) [III, 3'-deamino-3'-(2"-methoxy-6"-methyl-4"-morpholinyl)daunorubicin]: in the data set with HeLa cells (HeLa, 24 h, read-out: ID50), the IC50 came out at 1.8 ng/mL (≈ 2.81 nM).

As to `COc1cccc2c1C(=O)c1c(O)c3c(c(O)c1C2=O)C[C@@](O)(C(=O)CO)C[C@@H]3O[C@H]1C[C@H](N2CC(C)OC(OC)C2)[C@H](O)[C@H](C)O1` (stereo partly shown) [IV, 3'-deamino-3'-(2"-methoxy-6"-methyl-4"-morpholinyl)doxorubicin], the IC50 with HeLa cells (HeLa, 24 h, read-out: ID50) was found to be 0.32 ng/mL (≈ 0.487 nM). In addition, in the data set with P388 leukemia (0.2 mg/Kg), the “LTS (long term survivors, >60 days)” value is recorded as 0/10; the Toxic deaths is 0/10; the T/C % is recorded as 173%. The “potency versus the parent drug” value with P388 leukemia (setting [1]) was “more potent than the parent drug”. In addition, in the data set with Gross leukemia (0.27 mg/Kg), the “LTS (long term survivors, >60 days)” value is recorded as 0/10; the Toxic deaths is given as 0/10; the T/C % is reported as 142%. For the same compound, in the data set on Gross leukemia, the “potency versus doxorubicin” value is on record as “more potent than doxorubicin”.

Take `COc1cccc2c1C(=O)c1c(O)c3c(c(O)c1C2=O)C[C@@](O)(C(C)=O)C[C@@H]3O[C@H]1C[C@H](N2CC(CO)OC(OC)C2)[C@H](O)[C@H](C)O1` (stereo partly shown) [V, 3'-deamino-3'-(2"-methoxy-6"-hydroxymethyl-4"-morpholinyl)daunorubicin]: the IC50 in the data set on HeLa cells (HeLa, 24 h, read-out: ID50) was found to be 10.5 ng/mL (≈ 16 nM). Further, in the data set on P388 leukemia (2.0 mg/Kg), the “LTS (long term survivors, >60 days)” value is recorded as 0/10; the Toxic deaths is reported as 0/10; the T/C % is listed as 145%. Moreover, in the data set on P388 leukemia (3.0 mg/Kg), the “LTS (long term survivors, >60 days)” value is reported as 0/10; the Toxic deaths is 0/10; the T/C % was 164%. Besides, the “activity versus daunorubicin (increase of mice life span)” value in the data set on P388 leukemia (same optimal dose, P388 leukemia in mice) is given as “more active than daunorubicin”.

With `COc1cccc2c1C(=O)c1c(O)c3c(c(O)c1C2=O)C[C@@](O)(C(=O)CO)C[C@@H]3O[C@H]1C[C@H](N2CC(CO)OC(OC)C2)[C@H](O)[C@H](C)O1` (stereo partly shown) [VI, 3'-deamino-3'-(2"-methoxy-6"-hydroxymethyl-4"-morpholinyl)doxorubicin], the IC50 with HeLa cells (HeLa, 24 h, read-out: ID50) turned out to be 9 ng/mL (≈ 13.4 nM). Besides, in the data set on P388 leukemia (1.33 mg/Kg), the “LTS (long term survivors, >60 days)” value is 0/10; the Toxic deaths was 0/10; the T/C % amounted to 164%. In the data set on P388 leukemia (2.0 mg/Kg), the “LTS (long term survivors, >60 days)” value is 0/10; the Toxic deaths is recorded as 0/10; the T/C % stood at 195%. The “potency versus the parent drug” value in the data set on P388 leukemia (setting [1]) was “more potent than the parent drug”. Further, in the data set on Gross leukemia (2 mg/Kg), the “LTS (long term survivors, >60 days)” value is reported as 0/10; the Toxic deaths was 0/10; the T/C % was 150%. The “potency versus doxorubicin” value with Gross leukemia is reported as “more potent than doxorubicin”.
